According to patent publication US20100093642A1, “NOVEL POLYPEPTIDES” (priority 2006, published 2010):
No end group written: not given here.

Legend:
[1] = system: E. coli (ATCC 25922); type: cell-based, Escherichia coli
Experimental: (§1) The antibacterial activities of the different peptides were determined by continuous monitoring of bacterial growth with a Bioscreen C microbiology reader (Labsystems Oy, Helsinki, Finland). The test was performed in 100-well flat-bottomed honeycomb plates, in which 50 μl of test fractions were incubated with 50 μl of a suspension of an actively growing culture of bacteria diluted in Mueller Hinton medium to a starting concentration of 3×10^4 cells per ml. […] [NT] 13032) and S. aureus (ATCC 9144), were chosen as test bacteria. […] Polymyxin B (Sigma, St.

[2] = system: Pseudomonas aeruginosa; type: cell-based
Experimental: as §1

[3] = system: C. glutamicum (ATCC 13032); type: cell-based, Corynebacterium glutamicum
Experimental: as §1

[4] = system: S. aureus (ATCC 9144); type: cell-based, Staphylococcus aureus; conditions: ATCC 9144
Experimental: as §1

[5] = system: Botrytis cinerea 101; conditions: 48 h
Experimental: (§2) The various derivates of P17 (brominated and non-brominated) were tested for their ability to inhibit fungal growth of the yeast strains Saccaharomyces cerevisiae sp, Candida albicans (ATCC 10231) and Rodotorula sp., and the filamentous strains Botrytis cinerea 101, Penicillium rogveforti, and Fusarium sp. All strains, except C. albicans, were a gift from Prof. A. Tronsmo (The Norwegian University of Life Sciences, Ås, Norway). The fungi were cultivated on potato dextrose agar, supplemented with 2% glucose, at room temperature. Before antifungal testing, the fungi were dissolved in potato dextrose broth (Difco) at half-strength. Cell concentration was determined and adjusted after counting in a Bürker chamber. The filamentous fungi were filtered through a piece of cotton before counting. An aliquot of 50 μl of fungal spores (final concentration 2×10^5 spores per ml) were inoculated in microtiter plates (96 wells) along with 50 μl peptide solution. Peptides, dissolved in distilled water, were tested at final concentrations (two-fold dilutions) ranging from 50 μM to 0.1 μM. Cultures were grown in the dark (without shaking) and with a moist chamber at 25° C. (37° C. for C. albicans). Growth inhibition was determined microscopically after 48 h of incubation. MIC was determined as the lowest concentration of peptide resulting in 50% inhibition of visible growth.

[6] = system: Candida albicans (ATCC 10231); conditions: ATCC 10231, 48 h
Experimental: as §2

[7] = system: Saccharomyces cerevisiae; conditions: 48 h
Experimental: as §2

[8] = system: human breast malignant carcinoma cell line MCF-7; type: cell-based; conditions: 24 h
Experimental: The cytotoxic effects of the peptides on different human tumour cells were measured using the MTT colorimetric assay (Mosmann, 1983). […] Dissolved MIT is converted to an insoluble purple formazan by cleavage of the tetrazolium ring by dehydrogenase enzymes. This water insoluble formazan can be solubilized using isopropanol or other solvents and the dissolved material is measured spectrophotometrically. The absorbance was measured as a function of concentration of converted dye. The conversion of the soluble dye to the insoluble purple formazan is utilized in assays for measurement of cell proliferation. […] We used this assay to measure the degree of cell death caused by the peptides. MCF-7 was maintained in EMEM, A2058 in DMEM and […]-29 in RPMI-1640 medium supplemented with 10% heat inactivated […] and 1% L-glutamine-L-alanine in a humidified atmosphere of 5% CO2 at 37° C. The human embryonic fibroblast cell line, MRC-5 (which is normal fibroblasts), was cultured as a monolayer in MEM medium, under the same conditions as described for the tumour cell lines. Cells to be used in the assay were grown to a minimum of 75% confluency, trypsinated and split to single cell suspension, counted and centrifuged at 1500 rpm for 10 min. The cell pellet was resuspended to a concentration of 2×10^5 cells/ml (HT-29) or 1×10^5 (MRC-5, MCF7 and A2058) in DMEM without FBS and L-glutamine-L-alanine (assay-medium). All cell lines were routinely tested for mycoplasma infection using a PCR-based mycoplasma detection kit (MycoSensor PCR Assay Kit, Stratagene), following the supplier's instructions. All cell lines were mycoplasma free. The cytotoxicity was measured using the MTT method (Mosmann, 1983), with minor modifications. Different human tumour cells (1-2×10^5) were applied in 96-well culture plates in a volume of 100 μl DMEM medium and incubated at 37° C. for 24 hours. The medium was removed and the cells were treated with 100 μl of peptide solution (concentrations ranging from 0 to 200 μg/ml), diluted in a) RPMI-1640 medium supplemented with 5% heat inactivated FBS, or b) RPMI-1640 medium without FBS. The plates were incubated at 37° C. for 24 hours. Cells treated with Triton X-100 (1%) was used as positive control (100% killing) whereas cells plus medium only were used as negative control. […] A volume of 70 μl of the supernatant was then removed and […] (0.04 M HCl in isopropanol) added to each well. The plate was placed on a shaker for 1 hour at room temperature and read spectrophotometrically at 590 nm in a microtiter plate reader (DTX880 Multimode Detector, Beckman Coulter).

[9] = system: TNF-α; assay: Inhibition of LPS induced TNF-α response in THP-1 cells (ELISA); type: cell-based, human; conditions: Ratio TC50 (THP-1)/EC50 (anti-TNFα)
Experimental: FIG. 12. Antiinnflammatory response measured as inhibition of tumor necrosis factor alpha (TNF-α) response in THP-1 cells after stimulation with LPS. THP-1 cells (1×10^6 cells/ml) were treated with P17 derivates in different concentrations for 1 hour, and subsequently stimulated with 100 ng/ml LPS for 6 hours. LPS was used as control for induction of TNF-α. (set as 100% response), RPMI media was used as negative (non-stimulated) control, and cycloheximide (Chx, 10 μg/ml) was used as a an inhibitory control for LPS induced TNF-α. The data presented are the average of two parallells. (A) The effect of the peptides P17 HC and P17 HC (1-20). (B) The effect of the peptides P17 HC (11-20) and P17 HC-Br.
The THP-1 cells (ATCC, TIB-202) were maintained in suspension in RPMI-1640 medium with 25 mM HEPES and 2 mM Glutamax I supplemented with 10% FBS (growth medium) in a humidified atmosphere of 5% CO2 at 37° C. Cells to be used in the assay were grown to a density of 8×10^5-1×10^6 cells/ml. The cells were centrifuged for 7 min at 200 g and the cell pellet was resuspended to a concentration of 10^6 cells/ml in RPMI-1640 with 10% FBS.
To allow examination of antiinflammatory effects of the peptides on basal and stimulated cytokine production, peptide-treated macrophages were cultured in the presence of LPS and the levels of TNF-α were measured. The primary screening was based on a mammalian cell line; the human THP-1 line. This line is of monocyte/macrophage origin and responds to various stimuli by increased production of cytokines, like TNF-α and the IL-1β, (Wang et al. 2000). To induce monocyte-macrophage differentiation, THP-1 cells were cultured in 96-well culture plates (10^6 cells/well) in a volume of 100 μl RPMI 1640 medium, containing 50 ng/ml PMA (which is known to induce the maturation of monocytes) and incubated in a humidified atmosphere of 5% CO2, at 37° C. for 48 hours. The medium was then removed and the cells were washed with PBS, added 100 μl fresh medium (without PMA) and incubated for another 24 hours. Medium was removed and the adherent macrophages were treated with 100 μl of peptide solution (concentrations ranging from 0 to 400 μg/ml), diluted in RPMI-1640 medium with 25 mM HEPES and 2 mM Glutamax I, but without […] (assay medium). After incubation at 37° C. for 1 hour, the cells were added LPS (0.1 μg/ml) and further incubated for 6 hours. […] TNF-α concentrations were quantified by the Human TNF-α ELISA MAX kit (BioLegend), according to the manufacturer's instructions. Duplicate readings for each standard, control and sample were recorded. The average absorbance for each set of standards, controls, and samples was calculated using a standard curve. Concentrations were determined by extrapolation on the standard curve.

Question: Which results are given for SHAVKSGIHA [P17 HC (11-20)]?
Answer: Minimal inhibitory concentration, E. coli [1]: >100 µM; Minimal inhibitory concentration, P. aeruginosa [2]: >100 µM; Minimal inhibitory concentration, C. glutamicum [3]: >100 µM; Minimal inhibitory concentration, S. aureus [4]: >100 µM; Minimal inhibitory concentration (MIC), Botrytis cinerea [5]: >100 µM; Minimal inhibitory concentration (MIC), Candida albicans [6]: >100 µM; Minimal inhibitory concentration (MIC), Saccharomyces cerevisiae [7]: >100 µM; IC50 [8]: 103 µM; Therapeutic index TC50/EC50 [9]: >2.2
